Patent publication US8575158B2, “1-phenyl-substituted heterocyclyl derivatives and their use as prostaglandin D2 receptor modulators” (Actelion Pharmaceuticals Ltd., priority 2010, dated 2013)

Target: T1, hCRTH2 receptor (Homo sapiens, UniProt Q9Y5Y4)
T1 construct: expressed in transfected cells; host or cells: HEK293
T1 sequence (Q9Y5Y4 1-395): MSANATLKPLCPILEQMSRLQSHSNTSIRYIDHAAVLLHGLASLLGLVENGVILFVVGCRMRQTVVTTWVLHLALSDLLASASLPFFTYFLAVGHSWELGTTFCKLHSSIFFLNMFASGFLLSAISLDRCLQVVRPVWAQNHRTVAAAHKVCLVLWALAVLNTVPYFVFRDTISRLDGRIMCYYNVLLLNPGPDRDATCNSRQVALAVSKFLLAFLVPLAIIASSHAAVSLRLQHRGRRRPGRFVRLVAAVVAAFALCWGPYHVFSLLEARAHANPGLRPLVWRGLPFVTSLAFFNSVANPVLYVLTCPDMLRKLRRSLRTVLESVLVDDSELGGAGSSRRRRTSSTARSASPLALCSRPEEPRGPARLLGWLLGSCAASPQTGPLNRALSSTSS
Assay: Radioligand displacement assay (3H-PGD2) on hCRTH2 receptor membranes
Type: binding
Conditions: antagonistic activity; 3H-PGD2 displacement on HEK293-hCRTH2 membrane fragments

O=C(O)COc1ccc(F)cc1C1c2ccccc2CCN1C(=O)COCc1ccccc1 (racemic) [Example 126, (±)-{2-[2-(2-Benzyloxy-acetyl)-1,2,3,4-tetrahydro-isoquinolin-1-yl]-4-fluoro-phenoxy}-acetic acid]
IC50: 20 nM

O=C(O)COc1ccc(F)cc1C1c2ccccc2CCN1C(=O)CCCc1ccccc1 (racemic) [Example 127, (±)-{4-Fluoro-2-[2-(4-phenyl-butyryl)-1,2,3,4-tetrahydro-isoquinolin-1-yl]-phenoxy}-acetic acid]
IC50: 29 nM

COc1ccccc1CCC(=O)N1CCc2ccccc2C1c1cc(F)ccc1OCC(=O)O (racemic) [Example 128, (±)-(4-Fluoro-2-{2-[3-(2-methoxy-phenyl)-propionyl]-1,2,3,4-tetrahydro-isoquinolin-1-yl}-phenoxy)-acetic acid]
IC50: 69 nM

COc1cccc(CCC(=O)N2CCc3ccccc3C2c2cc(F)ccc2OCC(=O)O)c1 (racemic) [Example 129, (±)-(4-Fluoro-2-{2-[3-(3-methoxy-phenyl)-propionyl]-1,2,3,4-tetrahydro-isoquinolin-1-yl}-phenoxy)-acetic acid]
IC50: 280 nM

COc1ccc(CCC(=O)N2CCc3ccccc3C2c2cc(F)ccc2OCC(=O)O)cc1 (racemic) [Example 130, (±)-(4-Fluoro-2-{2-[3-(4-methoxy-phenyl)-propionyl]-1,2,3,4-tetrahydro-isoquinolin-1-yl}-phenoxy)-acetic acid]
IC50: 270 nM

O=C(O)COc1ccc(F)cc1C1c2ccccc2CCN1C(=O)CCc1ccccc1Cl (racemic) [Example 131, (±)-(2-{2-[3-(2-Chloro-phenyl)-propionyl]-1,2,3,4-tetrahydro-isoquinolin-1-yl}-4-fluoro-phenoxy)-acetic acid]
IC50: 48 nM

O=C(O)COc1ccc(F)cc1C1c2ccccc2CCN1C(=O)CCc1cccc(Cl)c1 (racemic) [Example 132, (±)-(2-{2-[3-(3-Chloro-phenyl)-propionyl]-1,2,3,4-tetrahydro-isoquinolin-1-yl}-4-fluoro-phenoxy)-acetic acid]
IC50: 86 nM

O=C(O)COc1ccc(F)cc1C1c2ccccc2CCN1C(=O)CCc1ccc(Cl)cc1 (racemic) [Example 133, (±)-(2-{2-[3-(4-Chloro-phenyl)-propionyl]-1,2,3,4-tetrahydro-isoquinolin-1-yl}-4-fluoro-phenoxy)-acetic acid]
IC50: 126 nM

Cc1ccccc1CCC(=O)N1CCc2ccccc2C1c1cc(F)ccc1OCC(=O)O (racemic) [Example 134, (±)-{4-Fluoro-2-[2-(3-o-tolyl-propionyl)-1,2,3,4-tetrahydro-isoquinolin-1-yl]-phenoxy}-acetic acid]
IC50: 31 nM

O=C(O)COc1ccc(F)cc1C1c2ccccc2CCN1C(=O)Cc1ccc2ccccc2c1 (racemic) [Example 135, (±)-{4-Fluoro-2-[2-(2-naphthalen-2-yl-acetyl)-1,2,3,4-tetrahydro-isoquinolin-1-yl]-phenoxy}-acetic acid]
IC50: 42.2 nM

Cc1ccccc1OCC(=O)N1CCc2ccccc2C1c1cc(F)ccc1OCC(=O)O (racemic) [Example 136, (±)-{4-Fluoro-2-[2-(2-o-tolyloxy-acetyl)-1,2,3,4-tetrahydro-isoquinolin-1-yl]-phenoxy}-acetic acid]
IC50: 119 nM

Cn1cc(CC(=O)N2CCc3ccccc3C2c2cc(F)ccc2OCC(=O)O)c2ccccc21 (racemic) [Example 137, (±)-(4-Fluoro-2-{2-[2-(1-methyl-1H-indol-3-yl)-acetyl]-1,2,3,4-tetrahydro-isoquinolin-1-yl}-phenoxy)-acetic acid]
IC50: 314 nM

O=C(O)COc1ccc(F)cc1C1c2ccccc2CCN1C(=O)COc1ccccc1Cl (racemic) [Example 138, (±)-(2-{2-[2-(2-Chloro-phenoxy)-acetyl]-1,2,3,4-tetrahydro-isoquinolin-1-yl}-4-fluoro-phenoxy)-acetic acid]
IC50: 101 nM

O=C(O)COc1ccc(F)cc1C1c2ccccc2CCN1C(=O)CCc1ccccc1F (racemic) [Example 139, (±)-(4-Fluoro-2-{2-[3-(2-fluoro-phenyl)-propionyl]-1,2,3,4-tetrahydro-isoquinolin-1-yl}-phenoxy)-acetic acid]
IC50: 233 nM

O=C(O)COc1ccc(F)cc1C1c2ccccc2CCN1C(=O)CC1Cc2ccccc2C1 (racemic) [Example 140, (±)-{4-Fluoro-2-[2-(2-indan-2-yl-acetyl)-1,2,3,4-tetrahydro-isoquinolin-1-yl]-phenoxy}-acetic acid]
IC50: 36.4 nM

O=C(O)COc1ccc(F)cc1C1c2ccccc2CCN1C(=O)/C=C/c1ccccc1F (racemic) [Example 141, (±)-(4-Fluoro-2-{2-[(E)-3-(2-fluoro-phenyl)-acryloyl]-1,2,3,4-tetrahydro-isoquinolin-1-yl}-phenoxy)-acetic acid]
IC50: 835 nM

Cc1ccccc1/C=C/C(=O)N1CCc2ccccc2C1c1cc(F)ccc1OCC(=O)O (racemic) [Example 142, (±)-{4-Fluoro-2-[2-((E)-3-o-tolyl-acryloyl)-1,2,3,4-tetrahydro-isoquinolin-1-yl]-phenoxy}-acetic acid]
IC50: 349 nM

O=C(O)COc1ccc(F)cc1C1c2ccccc2CCN1C(=O)CCCCc1ccccc1 (racemic) [Example 143, (±)-{4-Fluoro-2-[2-(5-phenyl-pentanoyl)-1,2,3,4-tetrahydro-isoquinolin-1-yl]-phenoxy}-acetic acid]
IC50: 395 nM

O=C(O)COc1ccc(F)cc1C1c2ccccc2CCN1C(=O)CCOc1ccccc1 (racemic) [Example 144, (±)-{4-Fluoro-2-[2-(3-phenoxy-propionyl)-1,2,3,4-tetrahydro-isoquinolin-1-yl]-phenoxy}-acetic acid]
IC50: 73.9 nM

CS(=O)(=O)c1ccc(CCC(=O)N2CCc3ccccc3C2c2cc(F)ccc2OCC(=O)O)cc1 (racemic) [Example 145, (±)-(4-Fluoro-2-{2-[3-(4-methanesulfonyl-phenyl)-propionyl]-1,2,3,4-tetrahydro-isoquinolin-1-yl}-phenoxy)-acetic acid]
IC50: 983 nM

O=C(O)COc1ccc(F)cc1C1c2ccccc2CCN1C(=O)CCN1CCc2ccccc21 (racemic) [Example 146, (±)-{2-[2-(3-2,3-Dihydro-indol-1-yl-propionyl)-1,2,3,4-tetrahydro-isoquinolin-1-yl]-4-fluoro-phenoxy}-acetic acid]
IC50: 61.3 nM

Cc1ccccc1OCCC(=O)N1CCc2ccccc2C1c1cc(F)ccc1OCC(=O)O (racemic) [Example 147, (±)-{4-Fluoro-2-[2-(3-o-tolyloxy-propionyl)-1,2,3,4-tetrahydro-isoquinolin-1-yl]-phenoxy}-acetic acid]
IC50: 57.6 nM

O=C(O)COc1ccc(F)cc1C1c2ccccc2CCN1C(=O)COc1ccccc1F (racemic) [Example 148, (±)-(4-Fluoro-2-{2-[2-(2-fluoro-phenoxy)-acetyl]-1,2,3,4-tetrahydro-isoquinolin-1-yl}-phenoxy)-acetic acid]
IC50: 132 nM

COc1ccccc1CCCC(=O)N1CCc2ccccc2C1c1cc(F)ccc1OCC(=O)O (racemic) [Example 149, (±)-(4-Fluoro-2-{2-[4-(2-methoxy-phenyl)-butyryl]-1,2,3,4-tetrahydro-isoquinolin-1-yl}-phenoxy)-acetic acid]
IC50: 42.7 nM

O=C(O)COc1ccc(F)cc1C1c2ccccc2CCN1C(=O)COCc1ccccc1Cl (racemic) [Example 150]
IC50: 6.16 nM

O=C(O)COc1ccc(Cl)cc1C1c2ccccc2CCN1C(=O)[C@@H]1C[C@H]1c1ccc(Cl)cc1 (mixture of isomers) [Example 157]
IC50: 45.3 nM

O=C(O)COc1ccc(Cl)cc1C1c2ccccc2CCN1C(=O)[C@@H]1C[C@H]1c1ccc(Cl)cc1Cl (mixture of isomers) [Example 158]
IC50: 37.6 nM

COc1ccccc1[C@@H]1C[C@H]1C(=O)N1CCc2ccccc2C1c1cc(Cl)ccc1OCC(=O)O (mixture of isomers) [Example 159]
IC50: 21.2 nM

O=C(O)COc1ccc(Cl)cc1C1c2ccccc2CCN1C(=O)[C@@H]1C[C@H]1c1ccccc1F (mixture of isomers) [Example 160]
IC50: 16.4 nM

O=C(O)COc1ccc(Cl)cc1C1c2ccccc2CCN1C(=O)CCc1cnnn1-c1ccccc1 (racemic) [Example 161]
IC50: 116 nM

O=C(O)COc1ccc(Cl)cc1C1c2ccccc2CCN1C(=O)CSc1cnnn1-c1ccccc1 (racemic) [Example 162]
IC50: 115 nM

O=C(O)COc1ccc(F)cc1C1c2ccc(F)cc2CCN1C(=O)OCc1ccccc1 (racemic) [Example 163]
IC50: 4.21 nM

O=C(O)COc1ccc(Cl)cc1C1c2ccccc2CCN1C(=O)OCc1ccccc1Cl (racemic) [Example 164]
IC50: 0.94 nM

O=C(O)COc1ccc(F)cc1C1c2ccccc2CCN1C(=O)OCc1ccccc1Cl (racemic) [Example 165]
IC50: 5 nM

CC(C)(C)COC(=O)N1CCc2ccccc2C1c1cc(F)ccc1OCC(=O)O (racemic) [Example 166]
IC50: 120 nM

CCCCOC(=O)N1CCc2ccccc2C1c1cc(F)ccc1OCC(=O)O (racemic) [Example 167]
IC50: 42 nM

COc1ccccc1OC(=O)N1CCc2ccccc2C1c1cc(F)ccc1OCC(=O)O (racemic) [Example 168]
IC50: 109 nM

O=C(O)COc1ccc(F)cc1C1c2ccccc2CCN1C(=O)Oc1ccccc1 (racemic) [Example 169]
IC50: 451 nM

O=C(O)COc1ccc(F)cc1C1c2ccccc2CCN1C(=O)Oc1ccccc1Cl (racemic) [Example 170]
IC50: 169 nM

CC(C)COC(=O)N1CCc2ccccc2C1c1cc(F)ccc1OCC(=O)O (racemic) [Example 171]
IC50: 47.7 nM

COCCOC(=O)N1CCc2ccccc2C1c1cc(F)ccc1OCC(=O)O (racemic) [Example 172]
IC50: 59.8 nM
